# Test results reported in US20200085791A1, “[(PHENYLSULFONYL)OCTAHYDRO-EPIMINOISOINDOL-YL](1H-1,2,3-TRIAZOL-5-YL)METHANONES” (Bayer Pharma Aktiengesellschaft, priority 2016, published 2020).
# Biological target: T1, recombinant human AKR1C3 (Aldo-keto reductase family 1 member C3) (Homo sapiens, UniProt P42330)
# T1 construct: GST (cleaved yes); made in house; host or cells: E. coli
# T1 sequence (P42330 1-323): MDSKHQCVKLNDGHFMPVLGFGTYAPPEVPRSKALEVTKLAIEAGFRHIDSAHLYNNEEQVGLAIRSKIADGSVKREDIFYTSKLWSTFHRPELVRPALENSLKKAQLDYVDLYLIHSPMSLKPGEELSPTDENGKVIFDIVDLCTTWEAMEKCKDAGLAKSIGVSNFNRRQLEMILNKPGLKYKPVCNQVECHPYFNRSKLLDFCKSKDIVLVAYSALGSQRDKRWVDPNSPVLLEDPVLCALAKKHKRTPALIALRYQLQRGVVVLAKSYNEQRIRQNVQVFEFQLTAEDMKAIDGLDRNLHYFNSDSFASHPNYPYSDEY
# Experiment: In Vitro Assay 1: AKR1C3-inhibitory activity (Coumberone to Coumberol fluorescence assay)
# Format: biochemical
# Settings: recombinant enzyme, Coumberone 0.3 μM, NADPH 10 μM, 15 min pre-incubation, 4-parameter fit; average or median values
# Description: In Vitro Assay 1: AKR1C3-Inhibitory Activity
# The AKR1C3-inhibitory activity of the substances of the present invention was measured in the AKR1C3 assay described in the paragraphs below.
# Essentially, the enzyme activity is measured by quantification of the Coumberol from Coumberone (Halim, M., Yee, D. J., and Sames, D., J. AM. CHEM. SOC. 130, 14123-14128 (2008) and Yee, D. J., Balsanek, V., Bauman, D. R., Penning, T. M., and Sames, D., Proc. Natl. Acad. Sci. USA 103, 13304-13309 (2006)). In this test, the increase of the highly fluorescent Coumberol by NADPH- (nicotinamide adenine dinucleotide phosphate)-dependent reduction of the non-fluorescent Coumberone by AKR1C3 can be determined.
# The enzyme used was recombinant human AKR1C3 (Aldo-keto reductase family 1 member C3) (GenBank Accession No. NM_003739). This was expressed in E. coli as GST (glutathione S transferase) fusion protein and purified by glutathione Sepharose affinity chromatography. The GST was removed by digestion with thrombin and subsequent size exclusion chromatography (Dufort, I., Rheault, P., Huang, X F., Soucy, P., and Luu-The, V., Endocrinology 140, 568-574 (1999)).
# For the assay, 50 nl of a 100-fold concentrated solution of the test substance in DMSO were pipetted into a black low-volume 384-well microtiter plate (Greiner Bio-One, Frickenhausen, Germany), 2.5 μl of a solution of AKR1C3 in assay buffer [50 mM potassium phosphate buffer pH 7, 1 mM DTT, 0.0022% (w/v) Pluronic F-127, 0.01% BSA (w/v) and protease inhibitor cocktail (Complete, EDTA-free Protease Inhibitor Cocktail from Roche)] were added and the mixture was incubated for 15 min to allow pre-binding of the substances to the enzyme prior to the enzyme reaction. The enzyme reaction was then started by addition of 2.5 μl of a solution of NADPH (20 μM→final concentration in 5 μl of assay volume is 10 μM) and Coumberone (0.6 μM→final concentration in 5 μl of assay volume is 0.3 μM) in assay buffer, and the resulting mixture was incubated at […] for the reaction time of typically 90 min. The concentration of the AKR1C3 and the reaction time was adapted to the respective activity of the enzyme preparation and adjusted such that the assay was carried out in the linear range.
# Typical AKR1C3 concentrations were in the region of 1 nM. The reaction was stopped by addition of 2.5 μl of a stop solution consisting of the inhibitor EM-1404 [F. Labrie et al. U.S. Pat. No. 6,541,463, 2003] (3 μM→final concentration in 7.5 μl of assay volume is 1 μM). The fluorescence of the Coumberole was then measured at 520 nm (excitation at 380 nm) using a suitable measuring instrument (Pherastar from BMG Labtechnologies). The intensity of the fluorescence was used as a measure of the amount of Coumberole formed and thus of the enzyme activity of AKR1C3. The data were normalized (enzyme reaction without inhibitor—0% inhibition; all other assay components, but no enzyme=100% inhibition).
row,IC50 [µM],Compound
1,0.026,"O=C(c1c[nH]nn1)N1C[C@@H]2[C@H](C1)[C@@H]1CC[C@H]2N1S(=O)(=O)c1cccc(F)c1 [Example 5, {(3aR,4S,7R,7aS)-8-[(3-fluorophenyl)sulfonyl]octahydro-2H-4,7-epiminoisoindol-2-yl}(1H-1,2,3-triazol-4-yl)methanone]"
2,0.007,"O=C(c1cnn[nH]1)N1C[C@@H]2[C@H](C1)[C@H]1CC[C@@H]2N1S(=O)(=O)c1cccc(Cl)c1Cl [Example 42, {(3aR,4R,7S,7aS)-8-[(2,3-dichlorophenyl)sulfonyl]octahydro-2H-4,7-epiminoisoindol-2-yl}(1H-1,2,3-triazol-5-yl)methanone]"
3,0.039,"Cc1cccc(S(=O)(=O)N2[C@@H]3CC[C@H]2[C@H]2CN(C(=O)c4cnn[nH]4)C[C@H]23)c1 [Example 23, {(3aR,4S,7R,7aS)-8-[(3-methylphenyl)sulfonyl]octahydro-2H-4,7-epiminoisoindol-2-yl}(1H-1,2,3-triazol-5-yl)methanone]"
4,0.002,"O=C(c1cnn[nH]1)N1[C@@H]2CC[C@H]1[C@H]1CN(S(=O)(=O)c3cccc(F)c3)C[C@H]12 [Example 27, {(3aR,4S,7R,7aS)-2-[(3-fluorophenyl)sulfonyl]octahydro-1H-4,7-epiminoisoindol-8-yl}(1H-1,2,3-triazol-5-yl)methanone]"
5,0.002,"O=C(c1cnn[nH]1)N1C[C@@H]2[C@H](C1)[C@H]1CC[C@@H]2N1S(=O)(=O)c1cc(F)ccc1Cl [Example 63, {(3aR,4R,7S,7aS)-8-[(2-chloro-5-fluorophenyl)sulfonyl]octahydro-2H-4,7-epiminoisoindol-2-yl}(1H-1,2,3-triazol-5-yl)methanone]"
6,0.009,"O=C(c1cnn[nH]1)N1[C@@H]2CC[C@H]1[C@H]1CN(S(=O)(=O)c3ccccc3C(F)(F)F)C[C@H]12 [Example 29, 1H-1,2,3-triazol-5-yl[(3aR,4S,7R,7aS)-2-{[2-(trifluoromethyl)phenyl]sulfonyl}octahydro-1H-4,7-epiminoisoindol-8-yl]methanone]"
7,0.322,"N#Cc1cccc(S(=O)(=O)N2[C@@H]3CC[C@H]2[C@H]2CN(C(=O)c4cnn[nH]4)C[C@H]23)c1 [Example 26, 3-{[(3aR,4S,7R,7aS)-2-(1H-1,2,3-triazol-5-ylcarbonyl)octahydro-1H-4,7-epiminoisoindol-8-yl]sulfonyl}benzonitrile]"
8,0.013,"COc1ccccc1S(=O)(=O)N1[C@@H]2CC[C@H]1[C@@H]1CN(C(=O)c3cnn[nH]3)C[C@@H]12 [Example 54, {(3aR,4R,7S,7aS)-8-[(2-methoxyphenyl)sulfonyl]octahydro-2H-4,7-epiminoisoindol-2-yl}(1H-1,2,3-triazol-5-yl)methanone]"
9,0.625,"COc1ccc(C#N)cc1S(=O)(=O)N1[C@@H]2CC[C@H]1[C@@H]1CN(C(=O)c3cnn[nH]3)C[C@@H]12 [Example 66, 4-methoxy-3-{[(3aR,4R,7S,7aS)-2-(1H-1,2,3-triazol-5-ylcarbonyl)octahydro-1H-4,7-epiminoisoindol-8-yl]sulfonyl}benzonitrile]"
10,0.113,"O=C(c1cnn[nH]1)N1C[C@@H]2[C@H](C1)[C@@H]1CC[C@H]2N1S(=O)(=O)c1ccc(F)cc1 [Example 22, {(3aR,4S,7R,7aS)-8-[(4-fluorophenyl)sulfonyl]octahydro-2H-4,7-epiminoisoindol-2-yl}(1H-1,2,3-triazol-5-yl)methanone]"
11,0.069,"O=C(c1c[nH]nn1)N1C[C@@H]2[C@H](C1)[C@@H]1CC[C@H]2N1S(=O)(=O)c1cccc(S(F)(F)(F)(F)F)c1 [Example 11, [(3aR,4S,7R,7aS)-8-{[3-(pentafluoro-λ^6-sulfanyl)phenyl]sulfonyl}octahydro-2H-4,7-epiminoisoindol-2-yl](1H-1,2,3-triazol-4-yl)methanone]"
12,0.002,"O=C(c1cnn[nH]1)N1C[C@@H]2[C@H](C1)[C@@H]1CC[C@H]2N1S(=O)(=O)c1ccccc1C(F)(F)F [Example 1, 1H-1,2,3-triazol-5-yl[(3aR,4S,7R,7aS)-8-{[2-(trifluoromethyl)phenyl]sulfonyl}octahydro-2H-4,7-epiminoisoindol-2-yl]methanone]"
13,0.999,"N#Cc1cc(S(=O)(=O)N2[C@@H]3CC[C@H]2[C@@H]2CN(C(=O)c4cnn[nH]4)C[C@@H]23)ccc1F [Example 50, 2-fluoro-5-{[(3aR,4R,7S,7aS)-2-(1H-1,2,3-triazol-5-ylcarbonyl)octahydro-1H-4,7-epiminoisoindol-8-yl]sulfonyl}benzonitrile]"
14,0.102,"O=C(c1c[nH]nn1)N1C[C@@H]2[C@H](C1)[C@@H]1CC[C@H]2N1S(=O)(=O)c1ccc(F)cc1F [Example 13, {(3aR,4S,7R,7aS)-8-[(2,4-difluorophenyl)sulfonyl]octahydro-2H-4,7-epiminoisoindol-2-yl}(1H-1,2,3-triazol-4-yl)methanone]"
15,0.193,"CCc1ccc(S(=O)(=O)N2[C@@H]3CC[C@H]2[C@@H]2CN(C(=O)c4cnn[nH]4)C[C@@H]23)cc1 [Example 38, {(3aR,4R,7S,7aS)-8-[(4-ethylphenyl)sulfonyl]octahydro-2H-4,7-epiminoisoindol-2-yl}(1H-1,2,3-triazol-5-yl)methanone]"
16,0.02,"O=C(c1c[nH]nn1)N1C[C@@H]2[C@H](C1)[C@@H]1CC[C@H]2N1S(=O)(=O)c1cccc(Cl)c1 [Example 3, {(3aR,4S,7R,7aS)-8-[(3-chlorophenyl)sulfonyl]octahydro-2H-4,7-epiminoisoindol-2-yl}(1H-1,2,3-triazol-4-yl)methanone]"
17,0.002,"Cc1ccc(Cl)cc1S(=O)(=O)N1[C@@H]2CC[C@H]1[C@@H]1CN(C(=O)c3cnn[nH]3)C[C@@H]12 [Example 53, {(3aR,4R,7S,7aS)-8-[(5-chloro-2-methylphenyl)sulfonyl]octahydro-2H-4,7-epiminoisoindol-2-yl}(1H-1,2,3-triazol-5-yl)methanone]"
18,0.085,"COc1ccc(Cl)cc1S(=O)(=O)N1[C@@H]2CC[C@H]1[C@@H]1CN(C(=O)c3cnn[nH]3)C[C@@H]12 [Example 47, {(3aR,4R,7S,7aS)-8-[(5-chloro-2-methoxyphenyl)sulfonyl]octahydro-2H-4,7-epiminoisoindol-2-yl}(1H-1,2,3-triazol-5-yl)methanone]"
19,0.148,"O=C(c1cnn[nH]1)N1C[C@@H]2[C@H](C1)[C@H]1CC[C@@H]2N1S(=O)(=O)c1ccc(F)c(F)c1F [Example 49, 1H-1,2,3-triazol-5-yl{(3aR,4R,7S,7aS)-8-[(2,3,4-trifluorophenyl)sulfonyl]octahydro-2H-4,7-epiminoisoindol-2-yl}methanone]"
20,0.327,"Cc1ccc(S(=O)(=O)N2[C@@H]3CC[C@H]2[C@H]2CN(C(=O)c4cnn[nH]4)C[C@H]23)cc1 [Example 21, {(3aR,4S,7R,7aS)-8-[(4-methylphenyl)sulfonyl]octahydro-2H-4,7-epiminoisoindol-2-yl}(1H-1,2,3-triazol-5-yl)methanone]"
21,0.058,"N#Cc1ccccc1S(=O)(=O)N1[C@@H]2CC[C@H]1[C@@H]1CN(C(=O)c3cnn[nH]3)C[C@@H]12 [Example 44, 2-{[(3aR,4R,7S,7aS)-2-(1H-1,2,3-triazol-5-ylcarbonyl)octahydro-1H-4,7-epiminoisoindol-8-yl]sulfonyl}benzonitrile]"
22,0.935,"COc1ccc(OC)c(S(=O)(=O)N2[C@@H]3CC[C@H]2[C@@H]2CN(C(=O)c4cnn[nH]4)C[C@@H]23)c1 [Example 36, {(3aR,4R,7S,7aS)-8-[(2,5-dimethoxyphenyl)sulfonyl]octahydro-2H-4,7-epiminoisoindol-2-yl}(1H-1,2,3-triazol-5-yl)methanone]"
